Data on 19 molecules can be found in patent US20260200897A1, “4-((5-(3-(4-(PYRIDIN-2-YL)CYCLOPENTYL)-1H-PYRAZOL-3-YL)AMINO)-BENZENESULFONAMIDE DERIVATIVES AND SIMILAR COMPOUNDS AS CDK INHIBITORS FOR THE TREATMENT OF CANCER” (BeOne Medicines I GmbH, priority 2023, published 2026).

For one assay, the target named is CDK2/Cyclin E1 (Homo sapiens, UniProt P24941). The assay is described as follows: CDK2/Cyclin E1 TR-FRET biochemical assay, 1 mM ATP. The note with it: 0.15 μM Rb (Ser780)-biotin substrate, 90 min reaction, Table 2. (TR-FRET usually uses a lanthanide donor and a delayed reading to cut background.)
Another assay concerns the target CDK1/Cyclin B1 (Homo sapiens, UniProt P06493). In words: CDK1/Cyclin B1 TR-FRET biochemical assay, 1 mM ATP. The note with it: 0.15 μM Rb (Ser780)-biotin substrate, 90 min reaction, Table 2.

The structures appear in SMILES notation.

Chain of CDK1/Cyclin B1 (P06493 whole entry): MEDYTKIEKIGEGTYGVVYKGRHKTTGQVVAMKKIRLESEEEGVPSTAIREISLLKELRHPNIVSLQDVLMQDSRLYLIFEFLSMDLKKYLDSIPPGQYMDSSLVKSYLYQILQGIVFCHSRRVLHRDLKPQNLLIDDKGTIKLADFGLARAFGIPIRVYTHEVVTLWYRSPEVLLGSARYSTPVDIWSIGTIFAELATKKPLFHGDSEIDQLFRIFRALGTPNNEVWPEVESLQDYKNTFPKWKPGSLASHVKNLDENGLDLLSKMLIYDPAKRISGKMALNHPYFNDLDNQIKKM
Chain of CDK1/Cyclin B1 (P14635 whole entry partner): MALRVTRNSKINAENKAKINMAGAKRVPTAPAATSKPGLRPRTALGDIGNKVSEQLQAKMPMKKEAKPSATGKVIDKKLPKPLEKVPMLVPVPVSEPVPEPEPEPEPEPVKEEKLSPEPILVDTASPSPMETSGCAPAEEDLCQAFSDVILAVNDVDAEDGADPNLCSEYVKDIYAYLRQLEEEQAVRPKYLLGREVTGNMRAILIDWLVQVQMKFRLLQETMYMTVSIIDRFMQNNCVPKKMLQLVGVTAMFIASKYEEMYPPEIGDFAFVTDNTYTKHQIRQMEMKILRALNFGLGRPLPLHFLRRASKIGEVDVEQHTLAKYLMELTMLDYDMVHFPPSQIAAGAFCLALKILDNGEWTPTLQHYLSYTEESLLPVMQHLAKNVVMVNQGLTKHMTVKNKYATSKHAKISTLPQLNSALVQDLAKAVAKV

In the case of `CC(C)(O)c1cnc(C2CCC(c3cc(Nc4ccc5c(c4F)CNS5(=O)=O)n[nH]3)C2)o1` (centres unmarked) [Example 110, 4-fluoro-5-((5-(3-(5-(2-hydroxypropan-2-yl)oxazol-2-yl)cyclopentyl)-1H-pyrazol-3-yl)amino)-2,3-dihydrobenzo[d]isothiazole 1,1-dioxide], the IC50 (usually the concentration needed to halve the response being measured) turned out to be 32 nM at CDK2/Cyclin E1 and 7240 nM at CDK1/Cyclin B1.
For `Cc1nc(C2CCC(c3cc(Nc4ccc5c(c4F)CNS5(=O)=O)n[nH]3)C2)oc1C(C)(C)C` (centres unmarked) [Example 111, 5-((5-(3-(5-(tert-butyl)-4-methyloxazol-2-yl)cyclopentyl)-1H-pyrazol-3-yl)amino)-4-fluoro-2,3-dihydrobenzo[d]isothiazole 1,1-dioxide], in that order: 17 nM and 4470 nM.
Taken in the same sequence, the figures for `CC1(c2cnc(C3CCC(c4cc(Nc5ccc6c(c5F)CNS6(=O)=O)n[nH]4)C3)o2)CC1` (centres unmarked) [Example 112, 4-fluoro-5-((5-(3-(5-(1-methylcyclopropyl)oxazol-2-yl)cyclopentyl)-1H-pyrazol-3-yl)amino)-2,3-dihydrobenzo[d]isothiazole 1,1-dioxide] were 16 nM and 6850 nM.
Taken in the same sequence, the figures for `COC(=O)c1nc(C2CCC(c3cc(Nc4ccc5c(c4F)CNS5(=O)=O)n[nH]3)C2)oc1C(C)(C)C` (centres unmarked) [Example 113, methyl 5-(tert-butyl)-2-(3-(3-((4-fluoro-1,1-dioxido-2,3-dihydrobenzo[d]isothiazol-5-yl)amino)-1H-pyrazol-5-yl)cyclopentyl)oxazole-4-carboxylate] were 235 nM and over 10000 nM.
`CCOC(=O)c1nc(C2CCC(c3cc(Nc4ccc5c(c4F)CNS5(=O)=O)n[nH]3)C2)oc1C(C)(C)C` (centres unmarked) [Example 114, ethyl 5-(tert-butyl)-2-(3-(3-((4-fluoro-1,1-dioxido-2,3-dihydrobenzo[d]isothiazol-5-yl)amino)-1H-pyrazol-5-yl)cyclopentyl)oxazole-4-carboxylate]: the IC50 at CDK2/Cyclin E1 is 429 nM; against CDK1/Cyclin B1, over 10000 nM.
Taken in the same sequence, the figures for `CCOC(=O)c1nc(C2CCC(c3cc(Nc4ccc5c(c4F)CNS5(=O)=O)n[nH]3)C2)oc1C(C)C` (centres unmarked) [Example 115, ethyl 2-(3-(3-((4-fluoro-1,1-dioxido-2,3-dihydrobenzo[d]isothiazol-5-yl)amino)-1H-pyrazol-5-yl)cyclopentyl)-5-isopropyloxazole-4-carboxylate] were 264 nM and over 10000 nM.
Taken in the same sequence, the figures for `O=S1(=O)NCc2c1ccc(Nc1cc(C3CCC(c4ncc(C5CC5)o4)C3)[nH]n1)c2F` (centres unmarked) [Example 116, 5-((5-(3-(5-cyclopropyloxazol-2-yl)cyclopentyl)-1H-pyrazol-3-yl)amino)-4-fluoro-2,3-dihydrobenzo[d]isothiazole 1,1-dioxide] were 98 nM and over 10000 nM.
`CC(C)(C)c1ccnc(C2CCC(c3cc(Nc4ccc5c(c4F)CNS5(=O)=O)[nH]n3)C2)c1` (centres unmarked) [Example 117, 5-((3-(3-(4-(tert-butyl)pyridin-2-yl)cyclopentyl)-1H-pyrazol-5-yl)amino)-4-fluoro-2,3-dihydrobenzo[d]isothiazole 1,1-dioxide]: the IC50 on CDK2/Cyclin E1 stood at 34 nM; on CDK1/Cyclin B1, 6770 nM.
Consider `CC(C)(C)c1cccc(C2CCC(c3cc(Nc4ccc5c(c4F)CNS5(=O)=O)[nH]n3)C2)n1` (centres unmarked) [Example 118, 5-((3-(3-(6-(tert-butyl)pyridin-2-yl)cyclopentyl)-1H-pyrazol-5-yl)amino)-4-fluoro-2,3-dihydrobenzo[d]isothiazole 1,1-dioxide], for which the IC50 at CDK2/Cyclin E1 was 725 nM; at CDK1/Cyclin B1, over 10000 nM.
For `CC(C)(C)c1ccc(C2CCC(c3cc(Nc4ccc5c(c4F)CNS5(=O)=O)[nH]n3)C2)nc1` (centres unmarked) [Example 119, 5-((3-(3-(5-(tert-butyl)pyridin-2-yl)cyclopentyl)-1H-pyrazol-5-yl)amino)-4-fluoro-2,3-dihydrobenzo[d]isothiazole 1,1-dioxide], in that order: over 10000 nM and over 10000 nM.
On to `Cc1cccc(C2CCC(c3cc(Nc4ccc5c(c4F)CNS5(=O)=O)n[nH]3)C2)n1` (centres unmarked) [Example 120, 4-fluoro-5-((5-(3-(6-methylpyridin-2-yl)cyclopentyl)-1H-pyrazol-3-yl)amino)-2,3-dihydrobenzo[d]isothiazole 1,1-dioxide], for which the IC50 is 4410 nM against CDK2/Cyclin E1 and over 10000 nM against CDK1/Cyclin B1.
Taken in the same sequence, the figures for `COc1cccc(C2CCC(c3cc(Nc4ccc5c(c4F)CNS5(=O)=O)n[nH]3)C2)n1` (centres unmarked) [Example 121, 4-fluoro-5-((5-(3-(6-methoxypyridin-2-yl)cyclopentyl)-1H-pyrazol-3-yl)amino)-2,3-dihydrobenzo[d]isothiazole 1,1-dioxide] were 3870 nM and over 10000 nM.
For `CC(C)c1ccnc(C2CCC(c3cc(Nc4ccc5c(c4F)CNS5(=O)=O)n[nH]3)C2)c1` (centres unmarked) [Example 122, 4-fluoro-5-((5-(3-(4-isopropylpyridin-2-yl)cyclopentyl)-1H-pyrazol-3-yl)amino)-2,3-dihydrobenzo[d]isothiazole 1,1-dioxide], the IC50 is 72 nM at CDK2/Cyclin E1 and over 10000 nM against CDK1/Cyclin B1.
For `Cc1cc(C(C)(C)C)cc(C2CCC(c3cc(Nc4ccc5c(c4F)CNS5(=O)=O)n[nH]3)C2)n1` (centres unmarked) [Example 123, 5-((5-(3-(4-(tert-butyl)-6-methylpyridin-2-yl)cyclopentyl)-1H-pyrazol-3-yl)amino)-4-fluoro-2,3-dihydrobenzo[d]isothiazole 1,1-dioxide], in that order: 1740 nM and over 10000 nM.
Taken in the same sequence, the figures for `Cc1ccnc(C2CCC(c3cc(Nc4ccc5c(c4F)CNS5(=O)=O)n[nH]3)C2)n1` (centres unmarked) [Example 124, 4-fluoro-5-((5-(3-(4-methylpyrimidin-2-yl)cyclopentyl)-1H-pyrazol-3-yl)amino)-2,3-dihydrobenzo[d]isothiazole 1,1-dioxide] were 107 nM and 8470 nM.
For `CCc1ccnc(C2CCC(c3cc(Nc4ccc5c(c4F)CNS5(=O)=O)n[nH]3)C2)n1` (centres unmarked) [Example 125, 5-((5-(3-(4-ethylpyrimidin-2-yl)cyclopentyl)-1H-pyrazol-3-yl)amino)-4-fluoro-2,3-dihydrobenzo[d]isothiazole 1,1-dioxide], in that order: 40 nM and 2760 nM.
As to `CC(C)c1ccnc(C2CCC(c3cc(Nc4ccc5c(c4F)CNS5(=O)=O)n[nH]3)C2)n1` (centres unmarked) [Example 126, 4-fluoro-5-((5-(3-(4-isopropylpyrimidin-2-yl)cyclopentyl)-1H-pyrazol-3-yl)amino)-2,3-dihydrobenzo[d]isothiazole 1,1-dioxide], the results for the IC50 on CDK2/Cyclin E1 and at CDK1/Cyclin B1 were 3.9 nM and 669 nM, respectively.
Taken in the same sequence, the figures for `CC(C)(C)c1cncc(C2CCC(c3cc(Nc4ccc5c(c4F)CNS5(=O)=O)n[nH]3)C2)c1` (centres unmarked) [Example 128, 5-((5-(3-(5-(tert-butyl)pyridin-3-yl)cyclopentyl)-1H-pyrazol-3-yl)amino)-4-fluoro-2,3-dihydrobenzo[d]isothiazole 1,1-dioxide] were 1250 nM and over 10000 nM.
For `CC(C)(C)c1cc(C2CCC(c3cc(Nc4ccc5c(c4F)CNS5(=O)=O)n[nH]3)C2)ccn1` (centres unmarked) [Example 129, 5-((5-(3-(2-(tert-butyl)pyridin-4-yl)cyclopentyl)-1H-pyrazol-3-yl)amino)-4-fluoro-2,3-dihydrobenzo[d]isothiazole 1,1-dioxide], in that order: 8020 nM and over 10000 nM.
